Laboratory results taken from patent US8653072B2, “Estrogen receptor ligands” (Karo Bio AB, priority 2008, dated 2014).

Legend:
human ERβ (ERβ-LBD) = biological target: T1, human ERβ (ERβ-LBD) (Homo sapiens, UniProt Q92731); experiment: Binding assay 1: estrogen receptor SPA binding assay (3H-E2 displacement), ERβ; conditions: read-out: binding affinity to the estrogen receptor β-subtype, IC50
T1 construct: ERβ (ERβ-LBD, pET-N-AT #1, aa 255-530); made in house; host or cells: E. coli BL21 (DE3) pBirA
T1 sequence (Q92731 255-530): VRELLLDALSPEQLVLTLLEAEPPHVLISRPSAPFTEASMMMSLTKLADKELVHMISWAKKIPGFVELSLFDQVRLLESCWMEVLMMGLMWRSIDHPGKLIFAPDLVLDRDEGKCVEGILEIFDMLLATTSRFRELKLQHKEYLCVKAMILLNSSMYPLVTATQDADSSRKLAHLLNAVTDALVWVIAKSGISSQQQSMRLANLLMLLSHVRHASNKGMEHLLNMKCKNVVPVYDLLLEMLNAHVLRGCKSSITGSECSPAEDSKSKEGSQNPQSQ
Experimental: Binding Assay 1: Estrogen Receptor Binding Assay
The estrogen receptor ligand binding assays are designed as scintillation proximity assays (SPA), employing the use of tritiated estradiol (^3H-E2) and recombinant expressed biotinylated estrogen receptor binding domains. The binding domains of human ERα (ERα-LBD, pET-N-AT #1, aa 301-595) and ERβ (ERβ-LBD, pET-N-AT #1, aa 255-530) proteins are produced in E. coli ((BL21, (DE3), pBirA)) at 22 C in 2×LB medium supplemented with 50 uM biotin. After 3 h of IPTG induction (0.55 mM), cells are harvested by centrifugation at 7300×g for 15 min and cell pellets stored frozen in −20 C. Extraction of ERα and ERβ are performed using 5 g of cells suspended in 50 mL of extraction buffer (50 mM Trig, pH 8.0, 100 mM KCl, 4 mM EDTA, 4 mM DDT and 0.1 mM PMSF). The cell suspension is run twice through a Microfluidizer M-110L (Microfluidics) and centrifuged at 15,000×g for 60 min. The supernatant is aliquoted and stored in −70 C.
Dilute ERα-LBD or ERβ-LBD extracts in assay buffer (18 mM K2HPO4, 2 mM KH2PO4, 20 mM NasMoO4, 1 mM EDTA, 1 mM TCEP) 1:676 and 1:517 for alpha and beta respectively. The diluted receptor concentrations should be 900 fmol/L. Preincubate the extracts with streptavidin coated polyvinyltoluene SPA beads (RPNQ0007, GE Healthcare) at a concentration of 0.43 mg/mL for 1 hr at room temperature.
Test compounds are evaluated over a range of concentrations from 157 μM to 37.5 pM. The test compound stock solutions should be made in 100% DMSO at 5× of the final concentration desired for testing in the assay. The amount of DMSO in the test wells of the 384 well plate will be 20%. Add 18 μl aliquots of test compounds to the assay plates followed by 35 μl of the preincubated receptor/SPA bead mix and finally add 35 μl of 3 nM ^3H-E2. Cover the plates with a plastic sealer, centrifuge for 1 minute at 1000 rpm and equilibrate over night on a shaker at room temperature. The following morning, centrifuge the plates 5 minutes at 2000 rpm and measure on a plate scintillation counter e.g. a PerkinElmer Microbeta 1450 Trilux.
For compounds able to displace 3[H]-E2 from the receptor an IC50-value (the concentration required to inhibit 50% of the binding of 3[H]-E2) is determined by a non-linear four parameter logistic model; b=((bmax−bmin)/(1+(I/IC50)S))+bmin I is added concentration of binding inhibitor, IC50 is the concentration of inhibitor at half maximal binding and S is a slope factor. The Microbeta-instrument generates the mean cpm (counts per minute) value/minute and corrects for individual variations between the detectors thus generating corrected cpm values.

[1] = biological target: T2, human estrogen receptor beta (hERβ 530) (Homo sapiens, UniProt Q92731); experiment: Transactivation assay 2: HEK293 cells stably transfected with pERE2-ALP and human estrogen receptor beta; format: cell-based; conditions: read-out: potency at the estrogen receptor β-subtype, EC50
T2 construct: expressed in transfected cells
T2 sequence (Q92731 whole entry): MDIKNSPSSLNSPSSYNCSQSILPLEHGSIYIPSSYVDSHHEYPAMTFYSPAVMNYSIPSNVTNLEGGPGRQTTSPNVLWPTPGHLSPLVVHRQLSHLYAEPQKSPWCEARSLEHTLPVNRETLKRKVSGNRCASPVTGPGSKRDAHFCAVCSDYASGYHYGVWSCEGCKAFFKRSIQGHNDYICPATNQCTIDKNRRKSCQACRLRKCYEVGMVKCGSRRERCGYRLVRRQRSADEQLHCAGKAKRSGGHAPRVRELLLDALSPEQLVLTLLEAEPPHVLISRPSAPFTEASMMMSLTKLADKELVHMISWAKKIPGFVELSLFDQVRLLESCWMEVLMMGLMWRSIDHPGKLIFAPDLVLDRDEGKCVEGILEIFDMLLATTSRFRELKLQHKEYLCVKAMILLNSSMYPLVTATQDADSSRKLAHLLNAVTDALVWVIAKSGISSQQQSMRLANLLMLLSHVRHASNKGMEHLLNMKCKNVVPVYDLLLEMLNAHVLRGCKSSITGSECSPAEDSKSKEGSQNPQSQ
Experimental: Transactivation Assay 2: Transactivation Assay in Human Embryonic Kidney 293 Cells Stably Transfected with pERE2-ALP and Human Estrogen Receptor Beta
Generation of stable HEK293 cell lines (CRL-1573; American Type Culture Collection) expressing the reporter vector pERE2-ALP and human estrogen receptor beta (hERβ 530) have been described (Mol Pharmacol 1998, 54, 105-112; Endocrinology 2002, 143, 1558-1561),
The cells were seeded in 384-well plates at 12 500 cells per well in Ham's F12 Coon's modification (without phenol red) with 10% dextran-coated charcoal treated (DCC) fetal bovine serum (FBS), 2 mM L-glutamine and 50 μg/ml gentamicin. After 24 h incubation (37° C., 5% CO2) the seeding medium was discarded and replaced with 20 μl Ham's F12 Coon's modification (without phenol red) with 1.5 DCC-FCS, 2 mM L-glutamine and supplemented with 100 U/ml penicillin and 100 μg/ml streptomycin. The selected compounds were added to the wells in 12 concentrations ranging from […] to 33 μM. The compounds were dissolved in 100% dimethylsulfoxide (DMSO) and the final concentration of DMSO in the assay was 0.1%. After 72 h incubation (37° C., 5% CO2) the medium was assayed for ALP activity by a chemiluminescence assay; a 10 μl aliquot of the conditioned medium was mixed with 100 μl assay buffer (0.1 M diethanolamine, 1 mM MgCl2) and 0.5 mM disodium 3-(4-methoxyspiro 1,2-dioxetane-3,2′-(5′-chloro)-tricyclo[3.3.1.13,7]decan-4-yl)phenyl phosphate (CSPD) (Tropix, Applied Biosystems) and incubated for 20 min at 37° C. and 15 min at room temperature before measurement of the chemiluminescent signal (one second per well) in a Wallac Microbeta Trilux 1450-028 (PerkinElmer). The ALP activity expressed in LCPS is directly proportional to the level of ALP expressed by the cells. The half maximal effective concentrations of the test compounds (EC50) were calculated from the curves fitted to the concentration-response data with a four parameter logistic model in XLfit software version 2.0 (IDBS) or later.

Row | Structure (SMILES) | IC50 (human ERβ (ERβ-LBD)) | EC50 [1]
1 | C=C(C)c1c(-c2ccccc2)n(-c2ccc(O)cc2)c2ccccc12 [Example 163, 4-(3-Isopropenyl-2-phenyl-indol-1-yl)-phenol] | 1 to 200 nM | 1 to 50 nM
2 | Cc1cccn1-c1c(/C(N)=N/O)c2ccccc2n1-c1ccc(O)cc1 [Example 188, (Z)-N′-hydroxy-1-(4-hydroxyphenyl)-2-(2-methyl-1H-pyrrol-1-yl)-1H-indole-3-carboximidamide] | 1 to 200 nM | 1 to 50 nM
3 | C/C=C(/C)c1c(/C(N)=N/O)c2ccccc2n1-c1ccc(O)cc1 [Example 191, (Z)-2-((Z)-but-2-en-2-yl)-N′-hydroxy-1-(4-hydroxyphenyl)-1H-indole-3-carboximidamide] | 1 to 200 nM | 1 to 50 nM
4 | Cc1ccc(C)n1-c1c(/C(N)=N/O)c2ccccc2n1-c1ccc(O)cc1 [Example 194, (Z)-2-(2,5-dimethyl-1H-pyrrol-1-yl)-N′-hydroxy-1-(4-hydroxyphenyl)-1H-indole-3-carboximidamide] | 1 to 200 nM | 1 to 50 nM
5 | CC(C)=Cc1c(C#N)c2cc(F)ccc2n1-c1ccc(O)cc1 [Example 220, 5-Fluoro-1-(4-hydroxy-penyl)-2-(2-methyl-prop-1-enyl)-1H-indole-3-carbonitrile] | 1 to 200 nM | 1 to 50 nM
6 | Cc1noc(C)c1-c1c(/C(N)=N/O)c2cc(F)ccc2n1-c1ccc(O)cc1 [Example 221, (Z)-2-(3,5-dimethylisoxazol-4-yl)-5-fluoro-N′-hydroxy-1-(4-hydroxyphenyl)-1H-indole-3-carboximidamide] | 1 to 200 nM | 1 to 50 nM
7 | CC(C)=Cc1c(/C(N)=N/O)c2cc(F)ccc2n1-c1ccc(O)cc1 [Example 223, (Z)-5-fluoro-N′-hydroxy-1-(4-hydroxyphenyl)-2-(2-methylprop-1-enyl)-1H-indole-3-carboximidamide] | 1 to 200 nM | 1 to 50 nM
8 | Cc1noc(C)c1-c1c(C(N)=NO)c2ccccc2n1-c1ccc(O)cc1F [Example 235, (Z)-2-(3,5-dimethylisoxazol-4-yl)-1-(2-fluoro-4-hydroxyphenyl)-N′-hydroxy-21H-indole-3-carboximidamide] | 1 to 200 nM | 1 to 50 nM

Further lines, results first:

Row | IC50 (human ERβ (ERβ-LBD)) | EC50 [1] | Structure (SMILES)
9 | 1 to 200 nM | 1 to 50 nM | Cc1noc(C)c1-c1c(/C(N)=N/O)c2ccccc2n1-c1ccc(O)cc1 [Example 11, (Z)-2-(3,5-dimethylisoxazol-4-yl)-N′-hydroxy-1-(4-hydroxyphenyl)-1H-indole-3-carboximidamide]
10 | 1 to 200 nM | 1 to 50 nM | CC(C)=Cc1c(C#N)c2ccccc2n1-c1ccc(O)cc1 [Example 39, 2-(Isobut-1-enyl)-1-(4-hydroxyphenyl)-1H-indole-3-carbonitrile]
11 | 1 to 200 nM | 1 to 50 nM | Cc1noc(C)c1-c1c(-c2ccccc2)c2ccccc2n1-c1ccc(O)cc1 [Example 42, 4-(2-(3,5-dimethylisoxazol-4-yl)-3-phenyl-1H-indol-1-yl)phenol]
12 | 1 to 200 nM | 1 to 50 nM | C/C=C\c1c(C#N)c2ccccc2n1-c1ccc(O)cc1 [Example 68, 1-(4-Hydroxy-phenyl)-2-((Z)-propenyl)-1H-indole-3-carbonitrile]
